Assay results published in patent US9302991B2, “Arylamide derivatives as TTX-S blockers” (RaQualia Pharma Inc., priority 2010, dated 2016).

The compounds below were run against T1, human Nav1.7 channels (Homo sapiens, UniProt Q15858) (assay: FRET assay, human Nav1.7 (EFS on FDSS)). Conditions: CHO cells expressing human Nav1.7, read-out: IC50 against Nav1.7.
T1 construct: expressed in transfected cells; host or cells: CHO
Format: cell-based
Procedure: The inhibitory activities of compounds against voltage gated sodium channels are determined by methodology well known in the art.
The ability of the aryl substituted carboxamide derivatives of the formula (I) to inhibit the NaV1.3, Nav1.7 and Nav1.5 channels is measured by Fluorescence Resonance Energy Transfer (FRET) assay and electrophysiology assay described below.
This screen is used to determine the effects of compounds on human Nav1.3, human Nav1.7, and human Nav1.5 channels, utilising electrical field stimulation (EFS) system in 96-well plate format on FDSS (Hamamatsu Photonics) platform. The change of membrane potential is monitored with FRET dye pair, oxonol (DiSBAC2(3)) and coumarin (CC2-DMPE).
CHO cells expressing human Nav1.7 channels are grown in T225 flasks, in a 5% CO2 humidified incubator to about 80% confluence. Media composition consists of HAM/F12 with Glutamax 1.10% FCS, 100 units/mL Penicillin and 100 microgram/mL Hygromycin.
Protocol: • Seed each cell lines (1×10^5 cells/well) into poly-D-lysine coated 96-well plates prior to experimentation. • Incubate at 37° C. in 5% CO2 for 24 hours. • Wash each well with assay buffer (140 mM NaCl, 4.5 mM KCl, 10 mM D-Glucose, 2 mM CaCl2, 1 mM MgCl2, 10 mM HEPES, pH 7.4 adjusted with NaOH) twice. • Add 1st loading solution containing 10 microM CC2-DMPE and 0.06% Pluronic F-127 in assay buffer. • Incubate the plate at room temperature in dark for 1 hour. • Remove 1st loading solution and added 2nd loading solution containing 15 microM DiSBAC2(3), 0.555 mM VABSC-1 and 0.004% Pluronic F-127 in assay buffer. • Place the plate under the dark at room temperature for 25 minutes. • Add compound solutions into the assay plate. • Set the assay plate in FDSS and placed an EFS device on the plate. • Measure EFS-induced fluorescent response by FDSS.
The data are analyzed and reported as normalized ratios of intensities measured at […]. The process of calculating these ratios is performed as follows:
This analysis is performed using a computerized specific program designed for FDSS generated data. Fluorescence ratio values are plotted using XLfit to determine an IC50 value for each compound.

T1 sequence (Q15858 whole entry): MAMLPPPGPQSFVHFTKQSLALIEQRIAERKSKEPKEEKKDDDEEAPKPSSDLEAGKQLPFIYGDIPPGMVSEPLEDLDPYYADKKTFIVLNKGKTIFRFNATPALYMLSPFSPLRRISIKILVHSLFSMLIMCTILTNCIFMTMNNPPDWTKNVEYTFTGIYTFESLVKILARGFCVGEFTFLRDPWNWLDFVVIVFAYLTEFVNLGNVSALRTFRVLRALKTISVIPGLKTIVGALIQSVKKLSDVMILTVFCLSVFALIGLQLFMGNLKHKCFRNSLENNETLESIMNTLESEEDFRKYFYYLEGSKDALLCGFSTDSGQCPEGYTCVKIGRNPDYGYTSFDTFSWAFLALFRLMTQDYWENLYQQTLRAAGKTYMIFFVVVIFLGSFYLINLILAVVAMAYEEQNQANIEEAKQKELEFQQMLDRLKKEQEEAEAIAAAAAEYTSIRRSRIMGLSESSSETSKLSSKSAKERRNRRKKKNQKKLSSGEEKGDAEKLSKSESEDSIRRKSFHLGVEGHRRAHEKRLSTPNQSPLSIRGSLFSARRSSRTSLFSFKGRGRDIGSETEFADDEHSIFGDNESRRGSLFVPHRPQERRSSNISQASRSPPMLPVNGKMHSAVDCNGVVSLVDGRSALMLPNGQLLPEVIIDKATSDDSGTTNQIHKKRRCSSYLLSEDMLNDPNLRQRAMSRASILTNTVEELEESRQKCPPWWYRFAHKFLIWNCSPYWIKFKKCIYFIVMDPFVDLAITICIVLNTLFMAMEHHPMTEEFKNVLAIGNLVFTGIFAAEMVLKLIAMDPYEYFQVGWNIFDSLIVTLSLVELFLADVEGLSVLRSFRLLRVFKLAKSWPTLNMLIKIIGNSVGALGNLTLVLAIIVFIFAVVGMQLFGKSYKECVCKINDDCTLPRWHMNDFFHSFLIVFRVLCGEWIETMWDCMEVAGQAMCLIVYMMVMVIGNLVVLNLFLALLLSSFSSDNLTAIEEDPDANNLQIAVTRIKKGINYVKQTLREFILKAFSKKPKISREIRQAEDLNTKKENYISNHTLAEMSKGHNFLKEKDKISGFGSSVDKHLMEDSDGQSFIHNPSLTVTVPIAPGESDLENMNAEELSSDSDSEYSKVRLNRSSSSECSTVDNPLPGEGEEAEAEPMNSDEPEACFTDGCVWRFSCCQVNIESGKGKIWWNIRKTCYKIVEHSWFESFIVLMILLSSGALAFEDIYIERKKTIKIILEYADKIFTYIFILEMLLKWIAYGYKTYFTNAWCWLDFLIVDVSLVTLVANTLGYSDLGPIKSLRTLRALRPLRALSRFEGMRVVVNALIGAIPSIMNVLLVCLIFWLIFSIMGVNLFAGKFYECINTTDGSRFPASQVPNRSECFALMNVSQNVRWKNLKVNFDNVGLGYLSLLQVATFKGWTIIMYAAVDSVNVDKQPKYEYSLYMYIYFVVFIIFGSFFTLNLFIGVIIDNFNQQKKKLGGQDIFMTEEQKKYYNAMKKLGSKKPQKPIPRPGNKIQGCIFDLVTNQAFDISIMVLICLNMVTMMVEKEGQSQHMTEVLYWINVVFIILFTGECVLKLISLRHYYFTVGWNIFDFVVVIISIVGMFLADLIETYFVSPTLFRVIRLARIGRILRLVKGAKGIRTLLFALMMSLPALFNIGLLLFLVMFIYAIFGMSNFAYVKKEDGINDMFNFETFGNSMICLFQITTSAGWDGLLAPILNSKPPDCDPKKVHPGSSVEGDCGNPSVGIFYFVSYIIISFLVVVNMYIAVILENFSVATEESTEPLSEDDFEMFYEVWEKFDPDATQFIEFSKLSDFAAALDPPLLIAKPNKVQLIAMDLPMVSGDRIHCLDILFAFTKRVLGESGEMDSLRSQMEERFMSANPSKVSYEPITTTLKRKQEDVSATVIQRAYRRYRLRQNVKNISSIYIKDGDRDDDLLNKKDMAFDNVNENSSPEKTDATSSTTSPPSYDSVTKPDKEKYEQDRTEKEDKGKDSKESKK

IC50, < 1 µM:
Cc1cc(C(=O)NCc2ccc(OCC(F)(F)C(F)(F)F)nc2)cc(NC(=O)C2CC2)n1 [Example 827, 2-(cyclopropanecarboxamido)-6-methyl-N-((6-(2,2,3,3,3-pentafluoropropoxy)pyridin-3-yl)methyl)isonicotinamide]
Cc1cc(C(C)NC(=O)c2ccnc(NC(=O)C(C)C)c2)cc(Cl)c1OCC(F)F (single isomer, unassigned) [Example 1210, N-(1-(3-chloro-4-(2,2-difluoroethoxy)-5-methylphenyl)ethyl)-2-isobutyramidoisonicotinamide]
Cc1cc(C(=O)NC(C)c2cnc(OCC(F)(F)C(F)F)c(C)c2)nc(NC(=O)C2CC2)n1 (single isomer, unassigned) [Example 907, 2-(cyclopropanecarboxamido)-6-methyl-N-(1-(5-methyl-6-(2,2,3,3-tetrafluoropropoxy)pyridin-3-yl)ethyl)pyrimidine-4-carboxamide]
Cc1cc(C(=O)NCc2cccc(C(F)(F)F)c2F)cc(NC(=O)C(C)C)n1 [Example 876, N-(2-fluoro-3-(trifluoromethyl)benzyl)-2-isobutyramido-6-methylisonicotinamide]
Cc1cc(C(=O)NCc2cnc(OCC(F)(F)F)c(Cl)c2)nc(NC(=O)C(C)C)n1 [Example 385, N-((5-chloro-6-(2,2,2-trifluoroethoxy)pyridin-3-yl)methyl)-2-isobutyramido-6-methylpyrimidine-4-carboxamide]
CCC(=O)Nc1cc(C(=O)NCc2ccc(OCC(F)(F)F)c(OC)c2)ccn1 [Example 882, N-(3-methoxy-4-(2,2,2-trifluoroethoxy)benzyl)-2-propionamidoisonicotinamide]
CC(=O)Nc1cc(C(=O)NCc2ccc(OCC(F)(F)F)nc2N2CCOCC2)ccn1 [Example 281, 2-acetamido-N-((2-morpholino-6-(2,2,2-trifluoroethoxy)pyridin-3-yl)methyl)isonicotinamide]
CCC(=O)Nc1cc(C(=O)NCc2ccc(OCC(F)(F)F)nc2N2CCOCC2)cc(C)n1 [Example 284, 2-methyl-N-((2-morpholino-6-(2,2,2-trifluoroethoxy)pyridin-3-yl)methyl)-6-propionamidoisonicotinamide]
Cc1cc(C(=O)NC(C)c2ccc(OCC(C)(F)F)nc2)cc(NC(=O)C2CC2)n1 (single isomer, unassigned) [Example 1064]
CCOc1nc(OCC(F)(F)F)ccc1CNC(=O)c1cc(C)nc(NC(C)=O)n1 [Example 338, 2-acetamido-N-((2-ethoxy-6-(2,2,2-trifluoroethoxy)pyridin-3-yl)methyl)-6-methylpyrimidine-4-carboxamide]
CCC(=O)Nc1cc(C(=O)NC(C)c2ccc(OCC(F)(F)F)cc2Cl)ccn1 (single isomer, unassigned) [Example 797, N-(1-(2-chloro-4-(2,2,2-trifluoroethoxy)phenyl)ethyl)-2-propionamidoisonicotinamide]
CC(=O)Nc1cc(C(=O)NC(C)c2ccc(OCC(F)F)c(Cl)c2)cc(C)n1 (single isomer, unassigned) [Example 1100, 2-acetamido-N-(1-(3-chloro-4-(2,2-difluoroethoxy)phenyl)ethyl)-6-methylisonicotinamide]
Cc1cc(C(=O)NCc2ccc(OCC(F)F)c(C)c2)nc(NC(=O)C2CC2)n1 [Example 996, 2-(cyclopropanecarboxamido)-N-(4-(2,2-difluoroethoxy)-3-methylbenzyl)-6-methylpyrimidine-4-carboxamide]
CC(=O)Nc1cc(C(=O)NCc2ccc(OCC(F)(F)F)nc2N2CCOCC2)cc(C)n1 [Example 283, 2-acetamido-6-methyl-N-((2-morpholino-6-(2,2,2-trifluoroethoxy)pyridin-3-yl)methyl)isonicotinamide]
CCC(=O)Nc1cc(C(=O)NCc2cccc(C(F)(F)F)c2F)ccn1 [Example 1012, N-(2-fluoro-3-(trifluoromethyl)benzyl)-2-propionamidoisonicotinamide]
Cc1cc(C(=O)NCc2ccc(OCC(F)(F)F)nc2)cc(NC(=O)C2CC2)n1 [Example 822, 2-(cyclopropanecarboxamido)-6-methyl-N-((6-(2,2,2-trifluoroethoxy)pyridin-3-yl)methyl)isonicotinamide]
CC(C)C(=O)Nc1cc(C(=O)NC(C)c2ccc(OCC(F)(F)F)cc2Cl)ccn1 (single isomer, unassigned) [Example 799, N-(1-(2-chloro-4-(2,2,2-trifluoroethoxy)phenyl)ethyl)-2-isobutyramidoisonicotinamide]
COc1nc(OCC(F)F)ccc1C(C)NC(=O)c1ccnc(NC(=O)C(C)C)c1 (single isomer, unassigned) [Example 1163, N-(1-(6-(2,2-difluoroethoxy)-2-methoxypyridin-3-yl)ethyl)-2-isobutyramidoisonicotinamide]
CCOc1nc(OCC(F)(F)F)ccc1CNC(=O)c1ccnc(NC(=O)C(C)C)c1 [Example 335, N-((2-ethoxy-6-(2,2,2-trifluoroethoxy)pyridin-3-yl)methyl)-2-isobutyramidoisonicotinamide]
CC(C)C(=O)Nc1cc(C(=O)N[C@H](C)c2cccc(C(F)(F)F)c2)ccn1 (single isomer, unassigned) [Example 530]
CCC(=O)Nc1cc(C(=O)NC(C)c2ccc(OCCC(F)(F)F)nc2)cc(C)n1 (single isomer, unassigned) [Example 140, 2-methyl-6-propionamido-N-(1-(6-(3,3,3-trifluoropropoxy)pyridin-3-yl)ethyl)isonicotinamide]
Cc1cc(C(=O)NCc2cnc(OCC(F)(F)F)c(C)c2)nc(NC(=O)C2CC2)n1 [Example 365, 2-(cyclopropanecarboxamido)-6-methyl-N-((5-methyl-6-(2,2,2-trifluoroethoxy)pyridin-3-yl)methyl)pyrimidine-4-carboxamide]
CC(C)C(=O)Nc1cc(C(=O)NC(C)c2cnc(OCC(F)(F)F)c(Cl)c2)ccn1 (single isomer, unassigned) [Example 522, N-(1-(5-chloro-6-(2,2,2-trifluoroethoxy)pyridin-3-yl)ethyl)-2-isobutyramidoisonicotinamide]
CC(=O)Nc1cc(C(=O)NC(C)c2ccc(OCC(F)(F)F)cc2Cl)cc(C)n1 (single isomer, unassigned) [Example 800, 2-acetamido-N-(1-(2-chloro-4-(2,2,2-trifluoroethoxy)phenyl)ethyl)-6-methylisonicotinamide]
CCCC(=O)Nc1cc(C(=O)NCc2ccc(OCC(F)(F)F)nc2OCC)ccn1 [Example 337, 2-butyramido-N-((2-ethoxy-6-(2,2,2-trifluoroethoxy)pyridin-3-yl)methyl)isonicotinamide]
CC(=O)Nc1nccc(C(=O)NC(C)c2cnc(OCC(F)(F)F)c(C)c2)n1 (single isomer, unassigned) [Example 234, 2-acetamido-N-(1-(5-methyl-6-(2,2,2-trifluoroethoxy)pyridin-3-yl)ethyl)pyrimidine-4-carboxamide]
CC(NC(=O)c1ccnc(NC(=O)C2CC2)c1)c1ccc(OCC(F)(F)C(F)(F)F)nc1 (single isomer, unassigned) [Example 689, 2-(cyclopropanecarboxamido)-N-(1-(6-(2,2,3,3,3-pentafluoropropoxy)pyridin-3-yl)ethyl)isonicotinamide]
CC(=O)Nc1cc(C(=O)NCc2cccc(OCC(F)(F)F)n2)ccn1 [Example 22, 2-acetamido-N-((6-(2,2,2-trifluoroethoxy)pyridin-2-yl)methyl)isonicotinamide]
Cc1cc(CNC(=O)c2ccnc(NC(=O)C(C)C)c2)ccc1OCC(F)F [Example 991, N-(4-(2,2-difluoroethoxy)-3-methylbenzyl)-2-isobutyramidoisonicotinamide]
CC(C)C(=O)Nc1cc(C(=O)NCc2ccc(O[C@H](C)C(F)(F)F)nc2)ccn1 (single isomer, unassigned) [Example 319]
